PubChem BioAssay (NCI)
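Compound exposure: 48 hours, 5 concentrations, 96-well plates. Here, GI50 denotes the concentration required for 50% inhibition of growth. The concentration for full growth arrest is given as TGI.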

How the values were obtained:
Assay in all cases: inhibition of tumour cell growth, NCI panel, 48 h
HS 578T breast = test system: HS 578T breast
HT29 colon = test system: HT29 colon
MDA-MB-435 = test system: MDA-MB-435
NCI-H460 lung = test system: NCI-H460 lung
NCI/ADR-RES ovarian = test system: NCI/ADR-RES ovarian
RXF 393 renal = test system: RXF 393 renal
SK-OV-3 ovarian = test system: SK-OV-3 ovarian
SW-620 colon = test system: SW-620 colon
SK-MEL-5 melanoma = test system: SK-MEL-5 melanoma
SR leukemia = test system: SR leukemia

Row | SMILES | TGI (HS 578T breast) [µM] | TGI (HT29 colon) [µM] | TGI (MDA-MB-435) [µM] | TGI (NCI-H460 lung) [µM] | TGI (NCI/ADR-RES ovarian) [µM] | TGI (RXF 393 renal) [µM] | TGI (SK-OV-3 ovarian) [µM] | TGI (SW-620 colon) [µM] | TGI (SK-MEL-5 melanoma) [µM] | TGI (SR leukemia) [µM] | GI50 (HS 578T breast) [µM] | GI50 (NCI-H460 lung) [µM] | GI50 (RXF 393 renal) [µM] | GI50 (SK-MEL-5 melanoma) [µM] | GI50 (SK-OV-3 ovarian) [µM] | GI50 (SW-620 colon) [µM]
1 | COc1cccc(OC/C(N=Cc2ccncc2)=N/NC(=O)c2ccncc2)c1 | > 100 | > 100 | > 100 | > 100 | > 100 | > 100 | > 100 | > 100 | – | – | – | – | – | – | – | –
2 | COC(C[C@H]1CCCC[C@]1(O)/C(=C\CO[Si](C(C)C)(C(C)C)C(C)C)Sc1ccccc1)OC | > 100 | > 100 | > 100 | > 100 | > 100 | 55.3 | > 100 | – | > 100 | 46.5 | – | – | – | – | – | –
3 | c1cc2c3c(c1)[C@@H]1O[C@@H]1c1cccc(c1-3)[C@@H]1O[C@H]21 | 40 | 50.1 | 32.5 | – | 61.6 | 17.2 | > 100 | – | 35.6 | > 100 | – | – | – | – | – | –
4 | CC(C)(C)C(=O)O[C@H]1C=C[C@@H](O)[C@@H]2[C@H]1[C@@H]1C=C[C@H]2C1 | > 100 | – | – | > 100 | 96.1 | – | > 100 | > 100 | – | > 100 | – | – | – | – | – | –
5 | CC(C)Oc1cc2c(cc1O)CC[C@@H]1[C@@H]2CC[C@]2(C)[C@@H](O)CC[C@@H]12 | – | 23 | 10.9 | 14.4 | 19.9 | 17.2 | 48.3 | 27.2 | 12.8 | 27.8 | – | – | – | – | – | –
6 | C/C(=C\COP(=O)(O)OP(=O)(O)O)CC/C=C(\C)CNc1ccccc1 | > 50 | > 50 | > 50 | > 50 | > 50 | > 50 | > 50 | > 50 | > 50 | – | – | – | – | – | – | –
7 | Cc1cccc(=O)c([O-])c1.Cc1cccc(=O)c([O-])c1.Cc1cccc(=O)c([O-])c1.Cc1cccc(=O)c([O-])c1.[Th+4] | – | > 49.4 | – | > 60.7 | – | > 100 | > 100 | > 100 | 31.9 | > 100 | – | – | – | – | – | –
8 | CCCCCCCCCCC[N+]1(Cc2ccccc2)CC2CCN(Cc3ccccc3)CC2C1 (stereo unspecified) | 1.57 | 1.71 | – | 2.58 | – | 1.95 | 3.13 | 1.58 | 0.357 | 1.07 | – | – | – | – | – | –
9 | Clc1ccc(Cc2nc3ccccc3nc2-c2cccc(Cl)c2)cc1 | 12.4 | 6 | 4.09 | 37.8 | 8.96 | 4.66 | 31.8 | 3.71 | 18.1 | – | – | – | – | – | – | –
10 | CCn1c(O)c(C(=O)NC(C)c2ccc([N+](=O)[O-])cc2)c(=O)n(CC)c1=S (stereo unspecified) | 7.42 | 5.17 | 13.6 | 9.36 | – | 12 | 7.38 | 10.5 | 11.3 | – | – | – | – | – | – | –
11 | CC(=O)c1cc(S(=O)(=O)c2ccc(O)c(C(C)=O)c2)ccc1O | – | > 100 | > 100 | > 100 | > 100 | > 100 | > 100 | > 100 | > 100 | > 100 | – | – | – | – | – | –
12 | Cc1sc2nc3n(sc4nc5sc(C)c(C)c5c(=O)n43)c(=O)c2c1C | > 100 | > 100 | > 100 | > 100 | > 100 | – | > 100 | > 100 | > 100 | > 100 | – | – | – | – | – | –
13 | O=C1NC(=S)N/C1=C\c1ccc(Sc2ccccc2C(=O)O)s1 | > 100 | > 100 | > 100 | > 100 | > 100 | > 100 | – | > 100 | > 100 | > 100 | – | – | – | – | – | –
14 | S=c1oc(CCCCCCCCc2nn(CNc3ccc(Cl)cc3)c(=S)o2)nn1CNc1ccc(Cl)cc1 | – | > 100 | > 100 | > 100 | > 100 | > 100 | > 100 | > 100 | 39.8 | – | – | – | – | – | – | –
15 | O=C(O)Cn1ncn(NC(=O)Cc2ccccc2)c1=S | > 10 | > 10 | > 10 | > 10 | > 10 | – | > 10 | > 10 | > 10 | > 10 | – | – | – | – | – | –
16 | Cc1c(Cl)c(=O)oc2cc(OCC(O)COC(C)C)ccc12 (stereo unspecified) | > 100 | > 100 | > 100 | > 100 | > 100 | – | > 100 | > 100 | 38.3 | 73.2 | – | – | – | – | – | –
17 | Cc1cc(C)c(C#N)c(SC(=S)NC(=O)c2ccccc2)n1 | > 100 | > 100 | > 100 | > 100 | > 100 | > 100 | – | > 100 | > 100 | > 100 | – | – | – | – | – | –
18 | Cn1cnc(/C=C/C#N)c1 | – | > 100 | > 100 | > 100 | > 100 | > 100 | > 100 | > 100 | > 100 | > 100 | – | – | – | – | – | –
19 | O=C1/C(=C/c2cccs2)N=C(c2ccccc2)N1c1nc2ccccc2s1 | 38.9 | > 100 | > 100 | > 100 | > 100 | 90.7 | – | > 100 | > 100 | > 100 | – | – | – | – | – | –
20 | Cc1ccc(C(=O)NN=C(/N=N/c2cccc(C)c2)c2ccc(N(C)C)cc2)cc1 | > 100 | > 100 | > 100 | > 100 | > 100 | – | > 100 | > 100 | > 100 | > 100 | – | – | – | – | – | –
21 | CCOc1ccccc1N=NC1C(=O)N(C(=O)CC(=O)Nc2ccccc2OC)N=C1C (stereo unspecified) | 12.2 | > 100 | > 100 | > 100 | > 100 | 81.5 | 94.3 | > 100 | > 100 | – | – | – | – | – | – | –
22 | C=C1C(=O)O[C@H]2[C@H]1CC/C(COC(=O)/C=C/C(=O)OC/C1=C/CC[C@@]3(C)O[C@H]3[C@H]3OC(=O)C(=C)[C@@H]3CC1)=C\CC[C@@]1(C)O[C@@H]21 | > 100 | – | – | > 100 | – | 0.713 | > 100 | 1.11 | > 100 | – | 3.22 | 5.2 | 0.297 | 4.34 | > 100 | 0.338
